Assay results published in publication PMC5593639, “NSC30049 inhibits Chk1 pathway in 5-FU-resistant CRC bulk and stem cell populations” (Oncotarget, 2017).

Assays:
[1] = system: HCT-116 cells; assay: Cell survival (MTT assay), HCT-116; assay type: cell-based, human; conditions: for IC50: Homo sapiens, HCT-116, 48 h; for cytotoxic effect: 48 h
Protocol: (§1) The survival of cells was determined by MTT (3-(4,5-Dimethylthiazol-2yl-)-2,5-diphenyl tetrazolium bromide) assay (ATCC, Manassas, VA, USA). In principle, the viable cell number is directly proportional to the purple formazan color of the reduced MTT dye, which can be quantitatively measured by spectrophotometry. Briefly, 1,500 cells were plated in quadruplets in 96-well flat-bottom tissue culture plates. After treatment with compounds for certain periods as described in respective figure legends, 10 μl of MTT reagent was added to each well and incubated at 37°C for 4 h to allow the formation of purple color crystals of formazan. In total, 100 μl of detergent solution was added to each well, and the reaction mixture was incubated in dark for 2–4 h at room temperature. The developed color density was then measured spectrophotometrically at 570 nm using the POLARstar Omega micro-plate reader (BMG Labtech, Inc., Cary, NC, USA).

[2] = system: ALDH1, KLF4, Nanog, Oct4, Sox2, c-Myc mRNA in CA2 cells; assay: Stem cell marker and self-renewal gene mRNA levels by qRT-PCR; assay type: cell-based, human; conditions: drug alone, 72 h, normalized with GAPDH
Protocol: Total RNA was isolated from control and treated cells with RNAzol reagent (Invitogen, Carlsbad, CA, USA). The expression of mRNA levels of stemness genes was determined by qRT-PCR using Bio-Rad CFX96 Real Time System C1000 Thermal Cycler. The primers used for amplification of mRNA levels of genes were from Celprogen, Inc., as shown here with their Gene Bank accession and catalog numbers: ALDHA1 (NM_000689, Cat. No. CepALDHA1-02), Klf4 (NM_004235, Cat No. CepKlf4-02), Nanog (NM_024865, Cat. No. CepNanog-02), Oct4 (NM_002701, Cat No. CepOct4-02), Sox2 (NM_003106, Cat. No. CepSox2-02), c-Myc (NM_002467, Cat. No. Cepc-Myc-02) and GAPDH (NM_002046, Cat. No. Cep-GAPDH-02).

[3] = system: LS174T cells; assay: Cell survival (MTT assay), LS174T; assay type: cell-based; conditions: Homo sapiens, drug alone, 48 h
Protocol: as §1

[4] = system: RKO cells; assay: Cell survival (MTT assay), RKO; assay type: cell-based; conditions: Homo sapiens, drug alone, 48 h
Protocol: as §1

[5] = system: Chk1 phosphorylation in HCT-116 cells; assay: Western blot of total and phosphorylated Chk1, HCT-116; assay type: cell-based, human; conditions: 5-FU alone, 24 h
Protocol: (§2) The levels of various proteins were determined by Western blot analysis with our previously described procedure. The antibodies for phospho-Chk1(Ser317), phospho-Chk1(Ser317), phospho-Chk1(Ser319), phospho-Chk1(Ser345), Chk1, and GAPDH were purchased from Cell Signaling Technology (Danvers, MA, USA).

[6] = system: HCoEpiC normal colonic epithelial cell line; assay: Cell survival (MTT assay), HCoEpiC; assay type: cell-based; conditions: Homo sapiens, drug alone, 48 h
Protocol: as §1

[7] = parameters: method as in PMID 20482808; conditions: cited from earlier work
[8] = system: CA2 CRC stem cell line; assay: Spheroid (sphere) formation assay; assay type: cell-based; conditions: Homo sapiens; drug alone, seventh day
Protocol: Live CA2 cells (100) were seeded in 384-well ultra-low attachment plates. Next, day cells were treated with different concentrations of NSC49L and 5-FU either alone or in combination. Cells were incubated for 7 days and the number of spheroids were counted in control and treated groups under an Olympus inverted microscope with a 10× magnification.

[9] = system: LoVo cells; assay: Cell survival (MTT assay), LoVo; assay type: cell-based; conditions: Homo sapiens, drug alone, 48 h
Protocol: as §1

[10] = system: SW480 cells; assay: Cell survival (MTT assay), SW480; assay type: cell-based; conditions: Homo sapiens, drug alone, 48 h
Protocol: as §1

[11] = system: human-derived CRC stem cell tumors; assay: Patient-derived tumor xenograft (PDTX) of CRC stem cell tumors; assay type: in vivo, female SCID mice; conditions: 20 mg/kg body weight 5-FU every day, 30 days
Protocol: With the pharmacokinetics analysis and MTD data in hand, we determined the efficacy of NSC49L and 5-FU alone and in combination for the growth of human-derived CRC stem cell tumors in vivo. CRC stem cells were isolated and characterized from the freshly resected human CRC tumor. One thousands of these CRC stem cells were injected subcutaneously into the right flank of the four 5-week old female SCID mice. After 20 days the first generation tumors (F0) of approximately 2,000 mm^3 in size were harvested. They were divided into four equal pieces and implanted under the skin of the female SCID mice for the growth of second generation tumors (F1) for testing the drug efficacy studies. We divided the F1 tumor bearing mice into four groups and treated them every day subcutaneously with drugs as follows: i) PBS control, (ii) 50 mg/kg body weight NSC49L, (iii) 20 mg/kg body weight 5-FU, and iv) 50 and 20 mg/kg body weight NSC49L and 5-FU, respectively, for 30 days. The treatment with drugs began after 10 days of tumor growth. The body weight and tumor volumes were recorded twice a weak. The experiment was terminated on the 32nd day.

[12] = system: Chk1 phosphorylation in HT29 cells; assay: Western blot of total and phosphorylated Chk1, HT29; assay type: cell-based, human; conditions: 2 mM HU 24 h
Protocol: as §2

[13] = system: HCT116(p53−/−) cells; assay: MTT assay, IC50 of HU, HCT116(p53−/−); assay type: cell-based, human; conditions: 72 h, compared with HCT116(p53+/+) cells
Protocol: as §1

[14] = system: HT29 cells; assay: Cell cycle profile by FACS; assay type: cell-based, human; conditions: 2 mM HU 24 h
Protocol: For determining the cell cycle profile, cells were plated in 60 mm tissue culture dishes and grown until 60% confluence. […] After treatment, cells were harvested at different time intervals, washed with ice-cold PBS and processed for FACS analysis as described previously. The ranges for G0/G1, S, and G2/M phase arrested and sub-G1 apoptotic cells were established on the basis of the corresponding DNA content of the histograms. At minimum, 10,000 cells were counted from each sample.

[15] = Solubility in water; assay type: physicochemical
[16] = system: human immunodeficiency virus (HIV) strain 1(RF); parameters: method as in http://dtp.cancer.gov/dtpstandard/AIDSData/index.jsp; conditions: ref http://dtp.cancer.gov/dtpstandard/AIDSData/index.jsp; cited from earlier work

Work on ClC/C=C\C[N+]12CN3CN(CN(C3)C1)C2 [c-NSC30049] yielded an IC50 ([1]; MTT assay, Figure 1B, three experiments) of 7.2 µM.

For O=c1[nH]cc(F)c(=O)[nH]1 [5-FU, 5-fluorouracil], the “mRNA levels of ALDH1, KLF4, Nanog, Oct4, Sox2 and c-Myc” value [2] was “decreased”, the IC50 ([1]; drug alone, MTT, Table 1, four estimations) was 11.5 ± 1.5 µM and the IC50 [3] was 51 ± 3.8 µM. For the same molecule, the IC50 [4] was 68 ± 10.4 µM, the “Chk1 phosphorylation (S317, S345, S296)” value [5] was “increased phosphorylation at all three Chk1 sites” and the IC50 [6] was 513 ± 22 µM. For the same molecule, the “AUC (bioavailability)” value [7] was 59710 ± 10580 ng·h/mL, the t1/2 [7] was 12.6 ± 3.6 min and the IC50 [8] was 7.5 µM. The IC50 [9] was 22 ± 0.9 µM, the IC50 [10] was 113 ± 6 µM and the “Growth of CRC stem cell tumors” value [11] was “initially appreciable; however after the 21st day of treatment growth of the tumors resumed”.

In the case of CC[N+](CC)(CC)CC=CCCl.[Cl-] [CBTA, (4-Chloro-but-2-enyl)triethylammonium chloride, reference compound], the cytotoxic effect ([1]; MTT assay, Figure 1B) is reported as “very little cytotoxic effect”.

With NC(=O)NO [HU, hydroxyurea, reference compound] the “Phosphorylation of Chk1 at S317, S345 and S296” value [12] was “increased”, the “IC50 of HU” value [13] was “decreased” and the “Cell cycle distribution G2/M” value [14] was 19.4%. The “Cell cycle distribution S (S-phase arrest)” value [14] was 27.7% and the “Cell cycle distribution S (S-phase arrest)” value ([14]; HU withdrawn, 8 h drug-free medium) was 42.4%.

With C1N2CN3CN1CN(C2)C3 [HMTA, hexamethylenetetramine, reference compound] the cytotoxic effect ([1]; MTT assay, Figure 1B) was “very little cytotoxic effect”.

In the case of ClCC=CC[N+]12CN3CN(CN(C3)C1)C2 [NSC30049, 1-(4-Chloro-2-butenyl)-1λ∼5∼,3,5,7-tetraazatricyclo [3.3.1.1∼3,7∼] decane], the Solubility in water [15] is listed as “readily soluble in water” and the “Activity against HIV” value [16] is listed as “inactive”.
